Tested on: not given
Details: not given

melting point [°C]	Structure (SMILES)
286 to 287	C[C@]12CCC3C(CC=C4C[C@@H](O)CC[C@@]43C)[C@@H]1CC[C@@H]2C1=CC(=O)OC1 (stereo in doubt)
221 to 223	COC(=O)Cn1cc([C@H]2CCC3C4CC=C5C[C@@H](O)CC[C@]5(C)C4CC[C@@]32C)nn1 (stereo partly shown)
129 to 135	COCO[C@H]1C[C@H]2OC(C)(C)OC[C@]23C2C(CC[C@]3(O)C1)[C@@]1(OCOC)CC[C@H](C=O)[C@@]1(C)C[C@H]2OCOC (stereo partly shown)
126 to 129	COCO[C@@H]1[C@H]2OC(C)(C)O[C@H]2[C@H](O[C@H]2C[C@H]3OC(C)(C)OC[C@]34C3C(CC[C@]4(O)C2)[C@@]2(O)CC[C@H](CO)[C@@]2(C)C[C@H]3OCOC)O[C@H]1C (stereo partly drawn) [Compound 10, (3S,3aR,5R,5bR,9aR,11S,12aS,14bS)-3-(hydroxymethyl)-5-(methoxymethoxy)-11-(((3aR,4R,6S,7S,7aR)-7-(methoxymethoxy)-2,2,6-trimethyltetrahydro-3aH-[1,3]dioxolo[4,5-c]pyran-4-yl)oxy)-3a,8,8-trimethylhexadecahydro-1H-cyclopenta[7,8]phenanthro[4,4a-d][1,3]dioxine-12a,14b-diol]
119 to 121	COCO[C@@H]1[C@H]2OC(C)(C)O[C@H]2[C@H](O[C@H]2C[C@H]3OC(C)(C)OC[C@]34C3C(CC[C@]4(O)C2)[C@@]2(O)CC[C@H](C(O)CO)[C@@]2(C)C[C@H]3OCOC)O[C@H]1C (stereo partly drawn) [Compound 3, (3S,3aR,5R,5bR,9aR,11S,12aS,14bS)-3-(1,2-dihydroxyethyl)-5-(methoxymethoxy)-11-(((3aR,4R,6S,7S,7aR)-7-(methoxymethoxy)-2,2,6-trimethyltetrahydro-3aH-[1,3]dioxolo[4,5-c]pyran-4-yl)oxy)-3a,8,8-trimethylhexadecahydro-1H-cyclopenta[7,8]phenanthro[4,4a-d][1,3]dioxine-12a,14b-diol]
97 to 99	COCO[C@@H]1[C@H]2OC(C)(C)O[C@H]2[C@H](O[C@H]2C[C@H]3OC(C)(C)OC[C@]34C3C(CC[C@]4(O)C2)[C@@]2(O)CC[C@H](C#N)[C@@]2(C)C[C@H]3OCOC)O[C@H]1C (stereo partly drawn) [Compound 11, (3S,3aR,5R,5bR,9aR,11S,12aS,14bS)-12a,14b-dihydroxy-5-(methoxymethoxy)-11-(((3aR,4R,6S,7S,7aR)-7-(methoxymethoxy)-2,2,6-trimethyltetrahydro-3aH-[1,3]dioxolo[4,5-c]pyran-4-yl)oxy)-3a,8,8-trimethylhexadecahydro-1H-cyclopenta[7,8]phenanthro[4,4a-d][1,3]dioxine-3-carbonitrile]
195 to 197	CC(C)[C@H](N)C(=O)O[C@H]1CC[C@@]2(C)C(=CCC3C2CC[C@@]2(C)C3CC[C@@H]2c2cn(Cc3ccccc3)nn2)C1 (stereo partly shown)
154 to 158	COCO[C@H]1C[C@H]2OC(C)(C)OC[C@]23C2C(CC[C@]3(O)C1)[C@@]1(OCOC)CC[C@H](CO)[C@@]1(C)C[C@H]2OCOC (stereo partly drawn) [Compound 22, (3S,3aR,5R,5bR,9aR,11S,12aS,14bS)-3-(hydroxymethyl)-5,11,14b-tris(methoxymethoxy)-3a,8,8-trimethylhexadecahydro-1H-cyclopenta[7,8]phenanthro[4,4a-d][1,3]dioxin-12a-ol]

Tested on: Na,K-ATPase α4 isoform
Details: higher than that of the ubiquitous α1 isoform; cited from earlier work

Structure (SMILES)	affinity for ouabain of α4 relative to the α1 isoform
C[C@@H]1O[C@@H](O[C@H]2C[C@@H](O)[C@]3(CO)[C@H]4[C@H](O)C[C@]5(C)[C@@H](C6=CC(=O)OC6)CC[C@]5(O)[C@@H]4CC[C@]3(O)C2)[C@H](O)[C@H](O)[C@H]1O [ouabain]	10,000 fold

Target: hERG (Homo sapiens, UniProt Q12809)
Sequence (Q12809 whole entry): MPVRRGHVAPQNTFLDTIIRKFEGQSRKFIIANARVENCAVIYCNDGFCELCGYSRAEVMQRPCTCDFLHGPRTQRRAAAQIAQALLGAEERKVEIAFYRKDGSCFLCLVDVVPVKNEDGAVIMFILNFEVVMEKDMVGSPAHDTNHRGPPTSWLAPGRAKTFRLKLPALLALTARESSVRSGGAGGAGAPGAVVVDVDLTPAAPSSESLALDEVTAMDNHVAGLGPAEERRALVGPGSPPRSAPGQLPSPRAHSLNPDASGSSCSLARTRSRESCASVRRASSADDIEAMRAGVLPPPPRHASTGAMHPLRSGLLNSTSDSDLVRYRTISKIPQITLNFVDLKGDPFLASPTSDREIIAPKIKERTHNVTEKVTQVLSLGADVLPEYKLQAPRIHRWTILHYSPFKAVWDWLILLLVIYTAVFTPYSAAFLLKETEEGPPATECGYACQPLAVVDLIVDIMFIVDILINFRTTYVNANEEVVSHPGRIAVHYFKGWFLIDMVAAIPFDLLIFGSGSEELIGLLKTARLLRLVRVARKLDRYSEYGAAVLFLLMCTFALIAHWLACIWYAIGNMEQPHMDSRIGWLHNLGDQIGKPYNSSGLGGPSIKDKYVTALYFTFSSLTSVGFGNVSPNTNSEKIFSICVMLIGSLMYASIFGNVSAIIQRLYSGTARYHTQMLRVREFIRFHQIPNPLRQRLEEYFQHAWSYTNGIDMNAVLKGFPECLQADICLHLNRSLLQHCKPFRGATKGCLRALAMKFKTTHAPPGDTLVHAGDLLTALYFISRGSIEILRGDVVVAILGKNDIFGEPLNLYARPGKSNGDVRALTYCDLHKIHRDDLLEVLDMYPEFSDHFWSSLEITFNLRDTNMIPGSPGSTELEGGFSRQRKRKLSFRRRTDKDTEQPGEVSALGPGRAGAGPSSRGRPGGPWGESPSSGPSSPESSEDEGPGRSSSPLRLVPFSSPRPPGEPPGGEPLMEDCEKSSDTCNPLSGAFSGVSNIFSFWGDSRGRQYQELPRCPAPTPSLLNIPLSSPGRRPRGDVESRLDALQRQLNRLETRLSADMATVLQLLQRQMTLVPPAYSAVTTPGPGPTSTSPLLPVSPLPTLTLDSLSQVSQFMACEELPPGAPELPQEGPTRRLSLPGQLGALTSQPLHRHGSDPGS
Details: not given

Structure (SMILES)	effect on hERG
C[C@@H]1O[C@@H](O[C@H]2C[C@@H](O)[C@]3(CO)[C@H]4[C@H](O)C[C@]5(C)[C@@H](C6=CC(=O)OC6)CC[C@]5(O)[C@@H]4CC[C@]3(O)C2)[C@H](O)[C@H](O)[C@H]1O [ouabain]	inhibited hERG activity

Reference: patent US9670247B2, “Contraceptive agents” (The University of Kansas, priority 2012, dated 2017)
